Results on 6 molecules are retold here after US5023254A, “Aminoalkylindoles, their production, and pharmaceutical preparations based thereon” (Schering Aktiengesellschaft, priority 1988, dated 1991).

In one experiment the target is T1, estrogen receptor (Bos taurus, UniProt P49884).
T1 construct: estrogen receptor from calf uterus; from tissue; host or cells: calf uterus
T1 sequence (P49884 1-596): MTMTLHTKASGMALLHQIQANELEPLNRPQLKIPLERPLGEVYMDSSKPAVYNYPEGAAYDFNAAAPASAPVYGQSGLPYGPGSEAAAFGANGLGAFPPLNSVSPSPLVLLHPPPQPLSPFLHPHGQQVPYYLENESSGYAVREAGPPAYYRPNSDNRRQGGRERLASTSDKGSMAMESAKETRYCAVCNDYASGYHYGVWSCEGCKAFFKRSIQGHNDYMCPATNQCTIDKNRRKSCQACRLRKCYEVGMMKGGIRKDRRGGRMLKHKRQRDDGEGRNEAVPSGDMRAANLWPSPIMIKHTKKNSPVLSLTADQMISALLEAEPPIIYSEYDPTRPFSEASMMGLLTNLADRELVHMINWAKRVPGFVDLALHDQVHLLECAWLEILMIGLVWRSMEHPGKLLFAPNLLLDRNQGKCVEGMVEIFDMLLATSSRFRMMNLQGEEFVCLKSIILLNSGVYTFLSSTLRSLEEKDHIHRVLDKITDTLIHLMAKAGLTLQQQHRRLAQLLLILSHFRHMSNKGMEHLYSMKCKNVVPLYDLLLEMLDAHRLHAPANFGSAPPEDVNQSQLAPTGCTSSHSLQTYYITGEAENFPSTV
In words: relative binding affinity (RBA) for the estrogen receptor from calf uterus, displacement of 3H-17β estradiol. The conditions noted are these: calf uterus; relative to 17 beta estradiol = 100.

For experiment [1], the system named is human MCF-7 breast cancer cells. The experiment can be described thus: growth of hormone-dependent human MCF-7 breast cancer cells, cell count. Format: cell-based. To be noted: for activity at 1 µM / activity at 0.1 µM / activity at 5 µM / activity at 0.5 µM / activity at 10 µM: Homo sapiens, read-out: Cell Count (% T/C); for activity at 10 µM: MCF-7, 1 × 10^-5 M. The text has this: (§1) The test protocol for the research is fully described in Eur.J. Cancer Clin. Oncol.

For experiment [2] the test system is unchanged. The experiment can be described thus: [3H] thymidine incorporation in hormone-dependent human MCF-7 breast cancer cells. Format: cell-based. To be noted: for activity at 1 µM / activity at 0.1 µM / activity at 5 µM / activity at 0.5 µM: Homo sapiens, read-out: [3H] Thymidine incorporation (% T/C).
Description: as §1
For orientation: Dividing cells build labelled thymidine or BrdU into new DNA.

The subject of experiment [3] is mouse uterus. The experiment can be described thus: Antiuterotrophic test on infantile mouse (anti-estrogen activity). The conditions noted are these: for inhibition in vivo at 0.025 mg: dose 25 ug (per animal). In kind it is in vivo. Set-up: Antiuterotrophic Test Rel. uterus wgt / Antiuterotrophic Test Action (rel. uterus wgt): unit not given here. The text has this:
(§2) This test is fully described in Cancer Treatment Reviews 1984, 11, 147, and J.Med.Chem., 1984, 27, 1439.

The subject of experiment [4] is mouse uterus. In words: Uterotrophic test on infantile mouse (estrogen activity). Format: in vivo. Set-up: unit not given here.
Description: as §2

Where [5] appears, read: Mus musculus, read-out: Antiuterotrophic Test Inhib. (%).
Setting [6] is: infantile mouse, read-out: Antiuterotrophic Test Inhib. (%).
The mark [7] stands for this setting: infantile mouse, dose 5 ug/animal.
[8] abbreviates: infantile mouse, dose 25 ug/animal.
[9] abbreviates: infantile mouse, dose 625 ug/animal.
Where [10] appears, read: infantile mouse, dose 625 ug/animal, read-out: Antiuterotrophic Test Inhib. (%).
The mark [11] stands for this setting: 10^-7 M, six days after incubation.

Structures are written as SMILES. Like-named read-outs stand apart in the source and are kept apart here.

Description for estrogen receptor: *Relative binding affinities for the estrogen receptor from calf uterus,

As for `Cc1c(-c2ccc(O)cc2)n(CCCCN2CCCC2)c2ccc(O)cc12` [Compound 1, 5-Hydroxy-2-(4-hydroxyphenyl)-3-methyl-1-[4-pyrrolidino-butyl]-indole], on estrogen receptor, the “RBA (relative binding affinity for the estrogen receptor)” value is given as 3.6. The activity at 1 µM in experiment [1] (MCF7, MCF-7, 1 × 10^-6 M) is 94%; in experiment [2] (MCF7, MCF-7, 1 × 10^-6 M) it was 85%. The activity at 0.1 µM in experiment [1] (MCF7, MCF-7, 1 × 10^-7 M) was found to be 106%; in experiment [2] (MCF7, MCF-7, 1 × 10^-7 M), 67%. Besides, the activity at 5 µM in experiment [1] (MCF7, MCF-7, 5 × 10^-6 M) turned out to be 62%; in experiment [2] (MCF7, MCF-7, 5 × 10^-6 M), 74%. The activity at 0.5 µM amounted to 84% in experiment [1] (MCF7, MCF-7, 5 × 10^-7 M) and 76% in experiment [2] (MCF7, MCF-7, 5 × 10^-7 M). Besides, in the experiment on mouse uterus [3] (setting [5]), the inhibition in vivo at 0.125 mg turned out to be 53%. Besides, the “Antiuterotrophic Test Rel. uterus wgt” value in the experiment on mouse uterus [3] (infantile mouse, dose 1 ug) is on record as 43.7 ± 8.2; in the experiment on mouse uterus [3] (infantile mouse, dose 5 ug), 47.6 ± 10.5; in the experiment with mouse uterus [3] (infantile mouse, dose 25 ug) it was 16.2 ± 4.6; with mouse uterus [3] (infantile mouse, dose 125 ug), 25.5 ± 7.9. Also, the inhibition in vivo at 0.001 mg with mouse uterus [3] (infantile mouse, dose 1 ug, read-out: Antiuterotrophic Test Inhib. (%)) was 5%. In addition, in the experiment with mouse uterus [3] (setting [6]), the inhibition in vivo at 0.025 mg turned out to be 78%. The “Uterotrophic Test Rel. uterus wgt” value in the experiment on mouse uterus [4] (dose 1 ug) is 7.6 ± 2.8; in the experiment on mouse uterus [4] (dose 5 ug), 8.0 ± 3.1; in the experiment on mouse uterus [4] (dose 25 ug), 6.4 ± 1.1; in the experiment on mouse uterus [4] (dose 125 ug), 6.4 ± 1.3.

With `Cc1c(-c2ccc(O)cc2)n(CCCCCCN2CCCC2)c2ccc(O)cc12` [Compound 6, 5-Hydroxy-2-(4-hydroxyphenyl)-3-methyl-1-[6-pyrrolidino-hexyl]-indole], the activity at 0.1 µM came out at 65% in experiment [1] (MCF7, […]) and 32% in experiment [2] (MCF7, […]). The activity at 0.5 µM in experiment [1] (MCF7, […]) is 49%; in experiment [2] (MCF7, […]), 32%. The activity at 1 µM in experiment [1] (MCF7, […]) came out at 24%; in experiment [2] (MCF7, […]), 22%. For the same molecule, the activity at 5 µM was 12% in experiment [1] (MCF7, […]) and 3% in experiment [2] (MCF7, […]). Also, the inhibition in vivo at 0.001 mg in the experiment with mouse uterus [3] (Mus musculus, read-out: Antiuterotrophic Test Inhib. (%), infantile mouse, dose 1 ug) amounted to 20%. The “Antiuterotrophic Test Rel. uterus wgt” value in the experiment on mouse uterus [3] (infantile mouse, dose 1 ug) is 48.3 ± 7.2; in the experiment with mouse uterus [3] (infantile mouse, dose 5 ug), 20.1 ± 7.3; in the experiment on mouse uterus [3] (infantile mouse, dose 25 ug), 12.6 ± 1.9; in the experiment on mouse uterus [3] (infantile mouse, dose 125 ug), 8.9 ± 1.6. Moreover, the “Uterotrophic Test Rel. uterus wgt” value in the experiment on mouse uterus [4] (dose 5 ug) was 9.0 ± 1.8; in the experiment with mouse uterus [4] (dose 50 ug), 8.2 ± 1.8; with mouse uterus [4] (dose 250 ug), 12.7 ± 2.7.

In the case of `Cc1c(-c2ccc(O)cc2)n(CCCCCC(=O)N2CCOCC2)c2ccc(O)cc12` [Compound 18, 5-Hydroxy-2-(4-hydroxyphenyl)-3-methyl-1-(6-morpholinocarbonylpentyl)-indole], the “RBA (relative binding affinity for the estrogen receptor)” value at estrogen receptor stood at 26. Moreover, in experiment [1] (MCF7), the activity at 10 µM is 33.3 ± 2.8%. In experiment [1] (MCF7, MCF-7, 1 × 10^-6 M), the activity at 1 µM was 56.4 ± 5.2%. Further, the activity at 0.1 µM in experiment [1] (MCF7, MCF-7, 1 × 10^-7 M) amounted to 57.5 ± 6.8%. The activity at 5 µM in experiment [1] (MCF7, MCF-7, 5 × 10^-6 M) was 42.4 ± 3.7%. The activity at 0.5 µM in experiment [1] (MCF7, MCF-7, 5 × 10^-7 M) worked out at 58.1 ± 6.7%. The inhibition in vivo at 0.125 mg in the experiment with mouse uterus [3] (setting [5]) is 41%. Moreover, the “Antiuterotrophic Test Action (rel. uterus wgt)” value (“Antiuterotrophic Test Action” for short) with mouse uterus [3] (setting [7]) is 53.5 ± 8.7; in the experiment on mouse uterus [3] (setting [8]) it was 52.8 ± 7.4. In addition, the entries for the “Uterotrophic Test Action (rel. uterus wgt)” value in the experiment with mouse uterus [4] (dose 1 ug/animal), in the experiment on mouse uterus [4] (dose 5 ug/animal) and in the experiment on mouse uterus [4] (dose 25 ug/animal) were 20.2 ± 3.4, 22.0 ± 5.6 and 21.2 ± 4.6, respectively.

As for `CCN(CC)C(=O)CCCCCn1c(-c2ccc(O)cc2)c(C)c2cc(O)ccc21` [Compound 19, 1-(6-Diethylcarbamoylpentyl)-5-hydroxy-2-(4-hydroxyphenyl)-3-methylindole], the “RBA (relative binding affinity for the estrogen receptor)” value on estrogen receptor was 15. Further, in experiment [1] (MCF7), the activity at 10 µM came to 44.9 ± 3.7%. In addition, in experiment [1] (MCF7, MCF-7, 1 × 10^-6 M), the activity at 1 µM was 61.4 ± 4.4%. Further, in experiment [1] (MCF7, MCF-7, 1 × 10^-7 M), the activity at 0.1 µM worked out at 59.7 ± 6.1%. Also, the activity at 5 µM in experiment [1] (MCF7, MCF-7, 5 × 10^-6 M) is 56.2 ± 4.5%. In addition, in experiment [1] (MCF7, MCF-7, 5 × 10^-7 M), the activity at 0.5 µM is 60.1 ± 3.8%. Further, the inhibition in vivo at 0.125 mg with mouse uterus [3] (setting [5]) worked out at 34%. Moreover, the inhibition in vivo at 0.005 mg in the experiment on mouse uterus [3] (infantile mouse, dose 5 ug (per animal), read-out: Antiuterotrophic Test Inhib. (%)) was determined as 13%. Also, the results for the “Antiuterotrophic Test Action” value in the experiment on mouse uterus [3] (setting [7]), in the experiment with mouse uterus [3] (setting [8]) and with mouse uterus [3] (setting [9]) were 50.9 ± 8.2, 50.9 ± 4.8 and 35.3 ± 6.1, respectively. Moreover, the inhibition in vivo at 0.025 mg in the experiment with mouse uterus [3] (setting [6]) came out at 13%. In addition, the inhibition in vivo at 0.625 mg in the experiment on mouse uterus [3] (setting [10]) was 66%. Further, the “Uterotrophic Test Action (rel. uterus wgt)” value in the experiment on mouse uterus [4] (dose 5 ug/animal) is listed as 18.4 ± 3.2; with mouse uterus [4] (dose 25 ug/animal) it was 17.9 ± 2.0; in the experiment on mouse uterus [4] (dose 625 ug/animal), 32.7 ± 6.5.

Consider `Cc1c(-c2ccc(O)cc2)n(CCCCCC(=O)NCc2ccccc2)c2ccc(O)cc12` [Compound 20, 1-(6-Benzylcarbamoylpentyl)-5-hydroxy-2-(4-hydroxyphenyl)-3-methylindole], for which the “RBA (relative binding affinity for the estrogen receptor)” value at estrogen receptor is 12. In addition, the activity at 10 µM in experiment [1] (MCF7) worked out at 26.8 ± 4.2%. The activity at 1 µM in experiment [1] (MCF7, MCF-7, 1 × 10^-6 M) turned out to be 46.8 ± 4.2%. In addition, the activity at 0.1 µM in experiment [1] (MCF7, MCF-7, 1 × 10^-7 M) was found to be 58.3 ± 4.9%. In addition, in experiment [1] (MCF7, MCF-7, 5 × 10^-6 M), the activity at 5 µM amounted to 36.6 ± 2.5%. In addition, the activity at 0.5 µM in experiment [1] (MCF7, MCF-7, 5 × 10^-7 M) is 47.9 ± 3%. The “Antiuterotrophic Test Action” value turned out to be 50.7 ± 5.0 with mouse uterus [3] (setting [7]), 46.9 ± 7.7 in the experiment with mouse uterus [3] (setting [8]) and 59.5 ± 12.4 in the experiment on mouse uterus [3] (setting [9]). Moreover, the inhibition in vivo at 0.025 mg in the experiment on mouse uterus [3] (setting [6]) is 12%. Further, the inhibition in vivo at 0.625 mg in the experiment on mouse uterus [3] (setting [10]) was -23%. Besides, the “Uterotrophic Test Action (rel. uterus wgt)” value with mouse uterus [4] (dose 5 ug/animal) is reported as 16.5 ± 3.6; in the experiment with mouse uterus [4] (dose 25 ug/animal), 20.9 ± 6.5; with mouse uterus [4] (dose 625 ug/animal), 19.9 ± 4.1.

Turning to `CC/C(=C(\c1ccccc1)c1ccc(OCCN(C)C)cc1)c1ccccc1` [Tamoxifen, reference compound], in experiment [1] (setting [11]), the “inhibition of MCF-7 cell growth / cell count (in words)” value is “no significant effect”. Also, the activity at 1 µM in experiment [1] (MCF7, MCF-7, 1 × 10^-6 M) turned out to be 27%; in experiment [2] (MCF7, MCF-7, 1 × 10^-6 M) it was 27%. The activity at 0.1 µM worked out at 77% in experiment [1] (MCF7, MCF-7, 1 × 10^-7 M) and 71% in experiment [2] (MCF7, MCF-7, 1 × 10^-7 M). Further, the “thymidine incorporation (in words)” value in experiment [2] (setting [11]) is recorded as “no significant effect”.
